Laboratory results from patent US10899741B2, “3,4-bipyridyl pyrazole derivative, and preparation method therefor and medical application thereof” (Jiangsu Hengrui Medicine Co., Ltd., priority 2016, dated 2021).

Tested on: murine melanoma cell B16-F1 xenograft
Assay: Therapeutic effect on B16-F1 xenograft C57 mice
Format: in vivo
Experimental: Evaluation of the inhibition effect of the compound of Example 1 on the growth of murine melanoma cell B16-F1 xenograft on C57 mice.
Compound 1 was formulated into a 5 mg/ml aqueous solution using 0.5% CMC-Na+0.25% (v/v) Polysorbate 80. The administration concentration was 50 mg/kg, and the oral volume for intragastrical administration was 10 ml/kg.
Female C57BL/6J mice for laboratory use were purchased from SINO-BRITISH SIPPR/BK LAB. ANIMAL LTD., CO (Shanghai, China, Certificate No.: SCXK (Shanghai) 2008-0016), and the body weight of mice was from 16 to 20 g when purchased. After the animals were purchased, the test was started after 3 days of adaptive feeding. Feeding conditions: SPF grade. Animal feeding method: 12/12 hours light/dark cycle, temperature 23±1° C., humidity 40-50%, the animals were fed with standard sterilized murine feed, and had free access to food and water.
The C57 mice after adaptive feeding were fasted overnight in a metabolic cage, and divided randomly into the following groups after weighing: blank control group and Compound 1 group, 10 mice per group. The skin preparation on the right flank of C57 mice was carried out one day in advance, B16-F1 cells were subcutaneously inoculated ([…] cells per mouse), and administration was started on the third day after inoculation. Each mouse was intragastrically administrated with Compound 1 (i.g., 10 ml/kg) twice a day, and the blank group was intragastrically administrated with the corresponding solvent. The tumor volume was measured twice a week, the body weight was weighed and the data were recorded.
Excel statistical software was used: the average value was calculated by avg; the SD value was calculated by STDEV; the SEM value was calculated as STDEV/SQRT: the difference between the groups P value was calculated by TTEST.
The calculation formula of tumor volume (V) is: V=½×Llength×Lshort^2
Tumor inhibition rate (%)==(C−T)/C (%)
Wherein V0 and VT are the tumor volumes at the beginning of the test and at the end of the test, respectively. C and T are the average tumor volumes of the Blank group and the test group at the end of the test, respectively.

`Cc1cccc(-c2nn(C3CCC3)cc2-c2ccnc(-c3ccc(S(C)(=O)=O)cc3)c2)n1` [Example 1, 4-(1-Cyclobutyl-3-(6-methylpyridin-2-yl)-1H-pyrazol-4-yl)-2-(4-(methylsulfonyl)phenyl)pyridine] was tested. Which “Effect on the body weight of the mice” value (50 mg/kg i.g. twice a day) did it give?
The value was “no effect”.

And the “Tumor volume compared with the blank control group” value (Day 19, 50 mg/kg i.g. twice a day)?
The value was “significantly smaller”.

And the “Average tumor volume d0” value (d0, 50 mg/kg po bid/20d)?
Its value is 0.00 mm^3.

And the “Average tumor volume d22” value (d22, 50 mg/kg po bid/20d)?
Its value is 301.53 mm^3.
